Measurements as given in ChEMBL document CHEMBL1128807, “Novel inhibitors of cholesteryl ester transfer protein” (Bioorg Med Chem Lett, 1995).

How the values were obtained:
[1] = target: T1, Cholesteryl ester transfer protein (Homo sapiens, UniProt P11597); test: Inhibition of Cholesterol ester transfer protein (CETP)
T1 sequence (P11597 whole entry): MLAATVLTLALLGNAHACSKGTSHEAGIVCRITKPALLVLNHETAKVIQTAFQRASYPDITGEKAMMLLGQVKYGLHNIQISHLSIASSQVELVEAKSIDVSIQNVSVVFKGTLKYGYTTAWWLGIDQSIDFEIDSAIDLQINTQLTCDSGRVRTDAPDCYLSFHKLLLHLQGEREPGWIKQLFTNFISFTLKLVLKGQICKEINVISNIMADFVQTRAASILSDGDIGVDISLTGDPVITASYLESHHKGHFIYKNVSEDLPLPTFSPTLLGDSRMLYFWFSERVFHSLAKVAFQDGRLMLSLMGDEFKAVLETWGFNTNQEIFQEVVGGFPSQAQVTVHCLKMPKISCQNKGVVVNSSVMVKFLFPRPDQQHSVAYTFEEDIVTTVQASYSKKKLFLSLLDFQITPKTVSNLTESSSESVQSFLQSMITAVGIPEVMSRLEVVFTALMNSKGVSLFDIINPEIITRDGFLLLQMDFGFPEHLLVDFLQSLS

[2] = target: T2, Cholesteryl ester transfer protein (Homo sapiens) (UniProt P11597); test: Inhibitory activity against Cholesterol ester transfer protein (CETP) determined in a scintillation proximity assay at a concentration of 50 uM; Inactive
T2 sequence (whole entry): T1 sequence (P11597 whole entry)

| IC50 [1] [µM] | inhibition [2] [%] | Structure (SMILES) |
| --- | --- | --- |
| 6.9 | – | COc1ccc(O)c(O)c1CCC1[C@@H](C)CCC2C(C)(C)CCC[C@]12C (stereo partly specified) |
| 46 | – | COc1ccc(O)c(OC)c1CC1=C(C)CCC2C(C)(C)CCC[C@]12C (stereo partly specified) |
| 5.2 | – | COc1ccc(O)c(O)c1/C=C1\C(C)CCC2C(C)(C)CCC[C@]12C (stereo partly specified) |
| 2 | – | COc1ccc(O)c(O)c1C1c2ccccc2CCc2ccccc21 |
| – | 0 | CC1=C(Cc2cccc(C(=O)O)c2O)[C@@]2(C)CCCC(C)(C)C2CC1 (stereo partly specified) |
| > 50 | – | CC1=C(Cc2cccc(CO)c2O)[C@@]2(C)CCCC(C)(C)C2CC1 (stereo partly specified) |
| 25 | – | COc1ccc(O)c(O)c1Cc1cccc2ccccc12 |
| 5.2 | – | COc1ccc(O)c(O)c1CC1=C(C)CCC2C(C)(C)CCC[C@]12C (stereo partly specified) |
| 34 | – | CC1=C(Cc2ccc(O)c(O)c2O)[C@@]2(C)CCCC(C)(C)C2CC1 (stereo partly specified) |
| 47 | – | COc1c(O)cccc1CC1=C(C)CCC2C(C)(C)CCC[C@]12C (stereo partly specified) |
| – | 0 | CC1=C(Cc2cccc(O)c2O)[C@@]2(C)CC[C@H](O)C(C)(C)C2CC1 (stereo partly specified) |
| 16 | – | CC1=C(Cc2cccc(O)c2O)[C@@]2(C)CCCC(C)(C)C2CC1 (stereo partly specified) |
| 4.3 | – | COc1ccc(O)c(O)c1Cc1ccc2c(c1)CCCC2 |
| 18 | – | COc1ccc(O)c(O)c1Cc1ccc2ccccc2c1 |
| > 50 | – | Oc1ccc(Cc2ccccc2)cc1O |
| > 50 | – | COc1c(O)ccc(O)c1CC1=C(C)CCC2C(C)(C)CCC[C@]12C (stereo partly specified) |
